Measurements: patent US7205002B2, “Method of making, and the use of cytotoxic agents containing elemental selenium” (MCW Research Foundation, Inc., priority 2002, dated 2007)
Where two headings read alike, the source gives them in different places. * marks the point of attachment. Cbz = O=C(OCc1ccccc1)*; CH2F = FC*

Legend:
[1] = system: normal murine granulocyte/macrophage progenitors (mCFU-GM); assay: Surviving fraction after 45 min exposure, in vitro clonal assay; assay type: cell-based; settings: 10 μg/ml
Procedure: (§1) Cytotoxic Se(0)-protein conjugates were generated by exposing alpha-medium supplemented with fetal bovine serum (10%) and selenomerocyanine photosensitizer MC54 (26 μM) to cool white fluorescent light (fluence rate: 27 W/m^2) for 60 min. Wild-type L1210 leukemia cells, melphalan-resistant mutant L1210/L-PAM1 cells, or normal murine granulocyte/macrophage progenitors (mCFU-GM) (10^6/ml) were suspended either in cytotoxic conjugates or in alpha-medium supplemented with 4-HC (10 μg/ml) and incubated for 45 min at 37° C. Treatment conditions were selected to achieve a similar recovery of normal murine hematopoietic progenitor cells (mCFU-GM). Cells were washed free of excess conjugates or drug, and surviving fractions were determined by in vitro clonal assay.

[2] = system: Wild-type L1210 leukemia cells; assay: as above; assay type: cell-based, murine; settings: 10 μg/ml
Procedure: as §1

[3] = system: melphalan-resistant mutant L1210/L-PAM1 cells; assay: as above; assay type: cell-based, murine; settings: 10 μg/ml
Procedure: as §1

L1210 leukemia cells = assay: Cytotoxic activity of conjugates formed by dye photoproducts and serum (lipo)proteins, in vitro clonal assay; assay type: cell-based, murine
Procedure: The mixtures were exposed to white light (27 W/m^2) for 60 min as deescribed above. […] To assess cytotoxic activity, cytotoxic conjugates were made isotonic by the addition of an appropriate volume of double-concentrated alpha-medium and incubated with L1210 leukemia cells for 60 min at 37° C. The surviving fraction of in vitro clonogenic leukemia cells was determined by in vitro clonal assay as described in Sieber, F. et al., 1984, which is incorporated by reference in its entirety. […] The fluorescence yield of fluorescent photoproduct-albumin conjugates was determined with a Hitachi F4500 fluorescence spectrophotometer. All samples were serially diluted with buffer to rule out artifacts due to self-quenching. In vitro clonal assays of L1210 murine leukemia cells were used to assess cytotoxic activity.

tumor cells = assay: Interactions of conjugates with ionizing radiation and standard chemotherapeutic agents; settings: 30 min pretreatment, nontoxic 3 mg/ml
Text: Alternatively, 5 or 6 doses of conjugates were used in combination with one or two doses of a drug. Depending on the combination, the two agents were applied either sequentially or simultaneously. […] For each combination, two or more target cells were selected from the following panel of tumor cell lines: L1210 and HL-60/ADR leukemia cells, PC3 and DU145 prostate cancer cells, H69 lung cancer cells, Mm5MT, MDA-MB-23 1, MDA-MB-435 and C1271 breast cancer cells, and SK-ES-1 Ewing's sarcoma cells.

[4] = system: PC3 prostate cancer cells; assay: Cytotoxicity of conjugates in combination; assay type: cell-based
[5] = system: MDA-MB-435 breast cancer cells; assay: Cytotoxicity of conjugates in combination; assay type: cell-based, human; settings: 0.5 mM; 20 hours
[6] = system: DU145 prostate cancer cells; assay: Cytotoxicity of conjugates alone or in combination; assay type: cell-based, human
Procedure: The study was conducted with DU145 human prostate cancer cells. The protein source was fetal bovine serum, and the data points are means of 4 plates±SE.

[7] = system: caspase activity in L1210 leukemia cells; assay: Caspase Detection Kit (FITC-VAD-FMK) with specific peptide inhibitors; assay type: cell-based, murine; settings: inhibitor 0.1 mM, 37° C., 1 hour
Procedure: Conjugates were derived from MC56 to avoid a spectral interference with the fluorescent caspase substrate. The protein source was fetal bovine serum. Caspase inhibitors were used as recommended by the manufacturer (R&D Systems). That is, each sample contained 10^6 cells, and the final concentration of inhibitors was 0.1 mM. Incubation was at 37° C. for 1 hour. […] In FIG. 12, the “Z-” prefix and the “-FMK” suffix are omitted because of space limitations.
We have used the Oncogene (San Diego, Calif.) Caspase Detection Kit to monitor caspase activity in L1210 leukemia cells after exposure to cytotoxic Se(0)-protein conjugates. The kit uses a fluorescent substrate (FITC-VAD-FMK; a conjugate of fluoresceinisothiocyanate with a fluoromethylketone-derivaticed short peptide) that detects a broad range of caspases. When FITC-VAD-FMK is used in conjunction with non-cytotoxic concentrations of specific peptide inhibitors (R&D Systems, Minneapolis, Minn.), the inhibition of the fluorescent signal is directly proportional to the contribution of the respective caspases to the overall signal. […] Caspases 2, 4 and 9 show moderate activation whereas caspases 1, 3, 6 and 8 show little or no activity. […]

[8] = in vivo; cited from earlier work
female B6D2F1 mice = assay: Acute systemic toxicity, intraperitoneal injection; assay type: in vivo; settings: MC54 26 μM with equimolar bovine serum albumin; 1-ml i.p. injection on 1 to 5 consecutive days
Procedure: Acute Systemic Toxicity of Photoproduct-Protein Conjugates in Mice: In an initial acute toxicity study, groups of 5 female B6D2F1 mice were injected intraperitoneally with photoproduct-protein conjugates. The photoproduct-protein conjugates were generated by photobleaching the selenomerocyanine MC54 (26 μM) in the presence of an equimolar concentration of bovine serum albumin. Group 1 received one 1-ml intraperitoneal injection of this conjugate. Groups 2 through 5 received the same injection of conjugates on 2, 3, 4, or 5 consecutive days, respectively.
The second toxicity experiment used conjugates that had been prepared with a dye-to-protein ratio of 5:1. Since MC54 was added from stock solutions in ethanol, the mice of the second series were exposed to 5-fold higher doses of ethanol.

O=P1(N(CCCl)CCCl)NC(OO)CCO1 (stereo not shown) [Dye 4-HC, 4-Hydroperoxycyclophosphamide]
Surviving Fraction [1]: 0.0088 ± 0.0025 | Surviving Fraction [2]: 0.0460 ± 0.0043 | Surviving Fraction [3]: 0.2636 ± 0.0074

CCO [Ethanol]
Cytotoxic Activity (L1210 leukemia cells; MC54-derived photoproducts with the given solvent/protein): no

CCCCN1C(=O)C(=C/C=C/C=C2\Oc3ccccc3N2CCCS(=O)(=O)[O-])C(=O)N(CCCC)C1=S.[Na+] [MC540]
Cytotoxic Activity (L1210 leukemia cells): no

NCCCNCCSP(=O)(O)O [amifostine]
Effect of pretreatment on response to cytotoxic conjugates (tumor cells): sensitized tumor cells to cytotoxic conjugates

CCCCS(=N)(=O)CCC(N)C(=O)O (stereo not shown) [buthionine sulfoximine]
Effect of pretreatment on response to conjugates ([4]; 0.5 mM, 20 hours): little or no effect | Effect of pretreatment on response to conjugates [5]: little or no effect | Effect of pretreatment on response to conjugates ([6]; 0.5 mM, 20 hours): improved the response

N.N.[Cl][Pt][Cl] [cisplatin]
Antitumor effect, sequential exposure with conjugates ([4]; sequential exposure): additive | Antitumor effect, sequential exposure with conjugates ([6]; sequential exposure): additive

Bovine serum albumin: carrier protein for conjugates with MC54-derived photoproducts
Cytotoxic Activity (L1210 leukemia cells): yes

Carboxymethylated bovine serum albumin: commercial product from Sigma Chemical Co.
Cytotoxic Activity (L1210 leukemia cells): no

Cbz-Val-Ala-Asp-CH2F
Inhibition of the fluorescent caspase signal [7]: reduced the fluorescence signal more than any of the specific inhibitors

Fetal bovine serum
Cytotoxic Activity (L1210 leukemia cells): yes

albumin
Cytotoxicity of conjugates by carrier (lipo)protein (L1210 leukemia cells): more cytotoxic than conjugates formed by HDL | half-life [8]: approximately 19 days

photoproduct-protein conjugates: generated by photobleaching the selenomerocyanine MC54 (26 μM) in the presence of an equimolar concentration of bovine serum albumin
Signs of toxicity (female B6D2F1 mice): None of the animals showed signs of acute or chronic toxicity | Survival (female B6D2F1 mice): All animals survived
